Assay results reported in patent US6525001B1, “Substituted pyrimidine and pyridine herbicides” (Mid-American Commercialization Corporation, priority 1997, dated 2003).

Experiments:
Assay type in all cases: in vivo
[1] = tested on: lambsquarters (Chenopodium album); assay: Test C; parameters: key: 0 was no effect; 100 was complete control; details: PREEMERGENCE
[2] = tested on: smallflower flatsedge (Cyperus difformis); assay: Test B flood test; details: for S. Flatsedge plant response rating: Rate 125 g/ha, Postemergence section (flood test species)
Procedure, shortened: (§1)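 Read-out is a visual response score from 0 (no effect) to 10 (complete control), assigned by comparison with untreated controls. Treatment was applied at the 2-leaf stage, and plants stayed in the greenhouse for twelve to sixteen days before scoring.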

rice (Oryza sativa) = assay: Test B flood test; details: for Rice plant response rating: Rate 125 g/ha, Postemergence section (flood test species)
Procedure, shortened: as §1

[3] = tested on: duck salad (Heteranthera limosa); assay: Test B flood test
Procedure, shortened: as §1

[4] = tested on: bamyardgrass (Echinochloa crus-galli); assay: Test B flood test
Procedure, shortened: as §1

rape (Brassica napus) = assay: Test B pre-/postemergence; parameters: key: 0 is no effect; 10 is complete control
Procedure, shortened: (§2)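 Compounds in a surfactant-containing, non-phytotoxic solvent blend are applied to freshly planted seed (preemergence) and, concurrently, to seedlings of 2 to 18 cm at 1–4 leaves (postemergence). Plants stay in the greenhouse twelve to sixteen days and are then scored visually from 0 (no effect) to 10 (complete control).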

[5] = tested on: bedstraw (Galium aparine); assay: Test B pre-/postemergence; parameters: key: 0 is no effect; 10 is complete control
Procedure, shortened: as §2

[6] = tested on: tall mallow (Malva sylvestris); assay: Test E pre-/postemergence/post directed; parameters: key: 0 is no effect; 100 is complete control; details: PREEMERGENCE
Source text: (§3) Seeds, tubers, or plant parts of alexandergrass (Brachiaria plantaginea), annual bluegrass (Poa annua), arrowleaf sida (Sida rhombifolia), barnyardgrass (Echinochloa crus-galli), bermudagrass (Cynodon dactylon), citrus (Citrus sinensis), common chickweed (Stellaria media), common purslane (Portulaca oleracea), common ragweed (Ambrosia elatior), common groundsel (Senecio vulgaris), dallisgrass (Paspalum dilatatum), goosegrass (Eleusine indica), green foxtail (Setaria viridis), guineagrass (Panicum maximum), itchgrass (Rottboellia exaltata), johnson grass (Sorghum halepense), kochia (Kochia scoparia), large crabgrass (Digitaria sanguinalis), leafy spurge (Euphorbia esula), pitted morningglory (Ipomoea lacunosa), purple nutsedge (Cyperus rotundus), quackgrass (Agropyron repens), Russian thistle (Salsola kali), sandbur (Cenchrus echinatus), sourgrass (Trichachne insularis), Spanishneedles (Bidens bipinnata), sugarcane (Saccharum officinarum), surinam grass (Brachiaria decumbens) and tall mallow (Malva sylvestris) were planted into greenhouse pots of flats containing greenhouse planting medium. Plant species were grown grown in separate pots or individual compartments. Preemergence applications were made within one day of planting the seed or plant part. Postemergence applications were applied when the plants were in the two to four leaf stage (three to twenty cm).
(§4) Test chemicals were formulated in a non-phytotoxic solvent mixture which included a surfactant and applied preemergence to the soil surface, postemergence to the plants or as a post directed spray to plants and soil at the base of the target species. Untreated control plants and treated plants were placed in the greenhouse and visually evaluated for injury 13 to 21 days after herbicide application. Plant response ratings, summarized in Table E, are based on a 0 to 100 scale where 0 is no injury and 100 is complete control. A dash (−) response means no test result.

[7] = tested on: sourgrass (Trichachne insularis); assay: Test E pre-/postemergence/post directed; parameters: key: 0 is no effect; 100 is complete control
Source text: as §3, §4

[8] = tested on: common purslane (Portulaca oleracea); assay: Test E pre-/postemergence/post directed; parameters: key: 0 is no effect; 100 is complete control
Source text: as §3, §4

[9] = tested on: large crabgrass (Digitaria sanguinalis); assay: Test E pre-/postemergence/post directed; parameters: key: 0 is no effect; 100 is complete control; details: PREEMERGENCE
Source text: as §3, §4

[10] = tested on: bermudagrass (Cynodon dactylon); assay: Test E pre-/postemergence/post directed; parameters: key: 0 is no effect; 100 is complete control; details: PREEMERGENCE
Source text: as §3, §4

[11] = tested on: common groundsel (Senecio vulgaris); assay: Test E pre-/postemergence/post directed; parameters: key: 0 is no effect; 100 is complete control
Source text: as §3, §4

[12] = Rate 62 g/ha, Postemergence (flood test)
[13] = Rate 250 g/ha, Postemergence (flood test species)
[14] = Rate 125 g/ha, Postemergence, flood test
[15] = Rate 250 g/ha, Postemergence (so in the source)
[16] = Rate 500 g/ha, Postemergence (flood test species)
[17] = Rate 125 g/ha, Postemergence section (flood test species)

For `CCc1cnc(-n2ccc(C(F)(F)F)n2)nc1Cc1cccc(C(F)(F)F)c1` [Compound 46], the “Plant response rating, Lambsquarters” value ([1]; Rate 35 g/ha) was 60, the “Plant response rating, Lambsquarters” value ([1]; Rate 70 g/ha) was 100 and the “Plant response rating, Lambsquarters” value ([1]; Rate 140 g/ha) was 100. For the same molecule, the “Plant response rating, S. Flatsedge” value [2, 12] was 4, the “S. Flatsedge plant response rating” value [2] was 5 and the “Plant response rating, S. Flatsedge” value [2, 13] was 7. The “Plant response rating, Rice” value (rice (Oryza sativa); [12]) was 1, the “Rice plant response rating” value (rice (Oryza sativa)) was 2 and the “Plant response rating, Rice” value (rice (Oryza sativa); [13]) was 4. The “Plant response rating, Ducksalad” value [3, 12] was 1, the “Plant response rating, Ducksalad” value [3, 14] was 1 and the “Plant response rating, Ducksalad” value [3, 13] was 4. The “Plant response rating, Barnyardgrass” value [4, 12] was 2, the “Plant response rating, Barnyardgrass” value [4, 14] was 3 and the “Plant response rating, Barnyardgrass” value [4, 13] was 4. For the same molecule, the “Plant response rating, Rape” value (rape (Brassica napus); Rate 62 g/ha, Postemergence) was 9, the “Rape plant response rating” value (rape (Brassica napus); Rate 62 g/ha, Preemergence) was 9 and the “Rape plant response rating” value (rape (Brassica napus); Rate 125 g/ha, Postemergence) was 9. The “Rape plant response rating” value (rape (Brassica napus); Rate 125 g/ha, Preemergence) was 9, the “Plant response rating, Rape” value (rape (Brassica napus); Rate 250 g/ha, Postemergence) was 9 and the “Plant response rating, Rape” value (rape (Brassica napus); [15]) was 10. The “Plant response rating, Bedstraw” value ([5]; Rate 62 g/ha, Postemergence) was 8, the “Bedstraw plant response rating” value ([5]; Rate 62 g/ha, Preemergence) was 8 and the “Plant response rating, Bedstraw” value ([5]; Rate 125 g/ha, Postemergence) was 9. For the same molecule, the “Bedstraw plant response rating” value ([5]; Rate 125 g/ha, Preemergence) was 9, the “Plant response rating, Bedstraw” value ([5]; Rate 250 g/ha, Postemergence) was 10 and the “Plant response rating, Bedstraw” value [5, 15] was 10. The “Plant response rating, Tall Mallow” value ([6]; Rate 32 g/ha) was 100, the “Plant response rating, Tall Mallow” value ([6]; Rate 64 g/ha) was 100 and the “Plant response rating, Tall Mallow” value ([6]; Rate 125 g/ha) was 100. For the same molecule, the “Plant response rating, Tall Mallow” value ([6]; Rate 250 g/ha) was 100, the “Plant response rating, Sourgrass” value ([7]; PREEMERGENCE, Rate 32 g/ha) was 98 and the “Plant response rating, Sourgrass” value ([7]; PREEMERGENCE, Rate 64 g/ha) was 100. The “Plant response rating, Sourgrass” value ([7]; PREEMERGENCE, Rate 125 g/ha) was 100, the “Plant response rating, Sourgrass” value ([7]; PREEMERGENCE, Rate 250 g/ha) was 100 and the “Plant response rating, Com. purslane” value ([8]; PREEMERGENCE, Rate 32 g/ha) was 100. For the same molecule, the “Plant response rating, Com. purslane” value ([8]; PREEMERGENCE, Rate 64 g/ha) was 100, the “Plant response rating, Com. purslane” value ([8]; PREEMERGENCE, Rate 125 g/ha) was 100 and the “Plant response rating, Com. purslane” value ([8]; PREEMERGENCE, Rate 250 g/ha) was 100. For the same molecule, the “Plant response rating, Large crabgrass” value ([9]; Rate 125 g/ha) was 100, the “Plant response rating, Large crabgrass” value ([9]; Rate 250 g/ha) was 100 and the “Plant response rating, Bermudagrass” value ([10]; Rate 125 g/ha) was 100. For the same molecule, the “Plant response rating, Bermudagrass” value ([10]; Rate 250 g/ha) was 100, the “Plant response rating, Com. groundsel” value ([11]; PREEMERGENCE, Rate 32 g/ha) was 100 and the “Plant response rating, Com. groundsel” value ([11]; PREEMERGENCE, Rate 64 g/ha) was 100. For the same molecule, the “Plant response rating, Com. groundsel” value ([11]; PREEMERGENCE, Rate 125 g/ha) was 100 and the “Plant response rating, Com. groundsel” value ([11]; PREEMERGENCE, Rate 250 g/ha) was 100.

`Cc1cnc(-n2ccc(C(F)(F)F)n2)nc1Cn1ccc(C(F)(F)F)n1` [Compound 52] was tested, and the “Plant response rating, Lambsquarters” value ([1]; Rate 35 g/ha) was 100, the “Plant response rating, Lambsquarters” value ([1]; Rate 70 g/ha) was 100 and the “Plant response rating, Lambsquarters” value ([1]; Rate 140 g/ha) was 100. The “Plant response rating, S. Flatsedge” value [2, 12] was 9, the “S. Flatsedge plant response rating” value [2] was 9 and the “Plant response rating, S. Flatsedge” value [2, 13] was 9. For the same molecule, the “Plant response rating, S. Flatsedge” value [2, 16] was 9, the “Plant response rating, Rice” value (rice (Oryza sativa); [12]) was 3 and the “Rice plant response rating” value (rice (Oryza sativa)) was 5. The “Plant response rating, Rice” value (rice (Oryza sativa); [13]) was 7, the “Plant response rating, Rice” value (rice (Oryza sativa); [16]) was 7 and the “Plant response rating, Ducksalad” value [3, 12] was 9. The “Ducksalad plant response rating” value [3, 17] was 9, the “Plant response rating, Ducksalad” value [3, 13] was 9 and the “Plant response rating, Ducksalad” value [3, 16] was 9. For the same molecule, the “Plant response rating, Barnyardgrass” value [4, 12] was 5, the “Barnyardgrass plant response rating” value [4, 17] was 6 and the “Plant response rating, Barnyardgrass” value [4, 13] was 7. The “Plant response rating, Barnyardgrass” value [4, 16] was 8, the “Plant response rating, Rape” value (rape (Brassica napus); Rate 62 g/ha, Postemergence) was 9 and the “Rape plant response rating” value (rape (Brassica napus); Rate 62 g/ha, Preemergence) was 9. The “Rape plant response rating” value (rape (Brassica napus); Rate 125 g/ha, Postemergence) was 9, the “Plant response rating, Rape” value (rape (Brassica napus); Rate 125 g/ha, Preemergence) was 10 and the “Plant response rating, Rape” value (rape (Brassica napus); Rate 250 g/ha, Postemergence) was 9. For the same molecule, the “Plant response rating, Rape” value (rape (Brassica napus); Rate 250 g/ha, Preemergence) was 10, the “Plant response rating, Rape” value (rape (Brassica napus); Rate 500 g/ha, Postemergence) was 10 and the “Plant response rating, Rape” value (rape (Brassica napus); Rate 500 g/ha, Preemergence) was 10. The “Plant response rating, Bedstraw” value ([5]; Rate 62 g/ha, Postemergence) was 9, the “Bedstraw plant response rating” value ([5]; Rate 62 g/ha, Preemergence) was 7 and the “Bedstraw plant response rating” value ([5]; Rate 125 g/ha, Postemergence) was 10. For the same molecule, the “Plant response rating, Bedstraw” value ([5]; Rate 125 g/ha, Preemergence) was 8, the “Plant response rating, Bedstraw” value ([5]; Rate 250 g/ha, Postemergence) was 10 and the “Plant response rating, Bedstraw” value ([5]; Rate 250 g/ha, Preemergence) was 9. For the same molecule, the “Plant response rating, Bedstraw” value ([5]; Rate 500 g/ha, Postemergence) was 10, the “Plant response rating, Bedstraw” value ([5]; Rate 500 g/ha, Preemergence) was 10 and the “Plant response rating, Tall Mallow” value ([6]; Rate 32 g/ha) was 60. The “Plant response rating, Tall Mallow” value ([6]; Rate 64 g/ha) was 98, the “Plant response rating, Tall Mallow” value ([6]; Rate 125 g/ha) was 100 and the “Plant response rating, Sourgrass” value ([7]; POSTEMERGENCE, Rate 125 g/ha) was 10. For the same molecule, the “Plant response rating, Sourgrass” value ([7]; POSTEMERGENCE, Rate 250 g/ha) was 50, the “Plant response rating, Sourgrass” value ([7]; PREEMERGENCE, Rate 32 g/ha) was 95 and the “Plant response rating, Sourgrass” value ([7]; PREEMERGENCE, Rate 64 g/ha) was 100. For the same molecule, the “Plant response rating, Sourgrass” value ([7]; PREEMERGENCE, Rate 125 g/ha) was 100, the “Plant response rating, Com. purslane” value ([8]; POSTEMERGENCE, Rate 125 g/ha) was 50 and the “Plant response rating, Com. purslane” value ([8]; POSTEMERGENCE, Rate 250 g/ha) was 75. For the same molecule, the “Plant response rating, Com. purslane” value ([8]; PREEMERGENCE, Rate 32 g/ha) was 100, the “Plant response rating, Com. purslane” value ([8]; PREEMERGENCE, Rate 64 g/ha) was 100 and the “Plant response rating, Com. purslane” value ([8]; PREEMERGENCE, Rate 125 g/ha) was 100. For the same molecule, the “Plant response rating, Large crabgrass” value ([9]; Rate 64 g/ha) was 100, the “Plant response rating, Large crabgrass” value ([9]; Rate 125 g/ha) was 100 and the “Plant response rating, Bermudagrass” value ([10]; Rate 125 g/ha) was 100. The “Plant response rating, Com. groundsel” value ([11]; POSTEMERGENCE, Rate 125 g/ha) was 100, the “Plant response rating, Com. groundsel” value ([11]; POSTEMERGENCE, Rate 250 g/ha) was 100 and the “Plant response rating, Com. groundsel” value ([11]; PREEMERGENCE, Rate 125 g/ha) was 100.
